Measured values reported in patent US8927580B2, “Thiosemicarbazone compounds and use in the treatment of cancer” (Oncochel Therapeutics LLC, priority 2010, dated 2015).

Key:
[1] = DMS-53 xenograft oral study: body and organ weights, haematology, biochemistry, histology; format: in vivo, nude mice (BALBc nu/nu); details: for Alanine Aminotransferase (ALT) / Albumin / Alkaline Phosphatase (ALP) / Cholesterol / Haematocrit (HCT) / Haemoglobin (HGB) / Platelets / Serum Iron / Total Iron-Binding Capacity (TIBC) / Triglyceride / Unsaturated Iron-Binding Capacity (UIBC) / White Blood Cell (WBC): oral gavage 21 days; for Red Blood Cell (RBC): oral gavage for 21 days, 3 days/week; for Body weight (% initial) / Brain weight / Heart weight / Kidney weight / Liver weight / Lung weight / Spleen weight: oral
[2] = system: SK-N-MC neuroepithelioma cells; assay: Iron efflux assay (59Fe release from pre-labeled cells); format: cell-based, human; details: 25 μM chelator, 3 h at 37° C.
Protocol: The culture dishes were then placed on ice, the supernatant containing excess ^59Fe-Tf was aspirated and the cells washed 4 times with ice-cold PBS. […] After 3 h the culture dishes were again placed on ice, the media was collected in counting tubes and this provided a measurement of released ^59Fe. Ice-cold PBS (1 mL) was added to plates containing cells and cells were scraped from the plastic surface using a Teflon spatula and also collected in counting tubes. These tubes represent the intracellular ^59Fe content. Results are expressed as total ^59Fe released as a percentage of total ^59Fe present. Radioactivity was measured using a Wallac Wizard 3″ Gamma Counter (PerkinElmer, MA, USA).

[3] = system: DMS-53 human lung carcinoma; assay: DMS-53 xenograft in nude mice, i.v. administration: tumour growth; format: in vivo, nude mice (BALBc nu/nu); details: after 25 days, 4 or 6 mg/kg
[4] = system: DMS-53 human lung carcinoma; assay: DMS-53 xenograft in nude mice, oral gavage: tumour growth; format: in vivo, nude mice (BALBc nu/nu); details: for Tumour weight: 21 days; for net tumour size (% of initial tumour volume): after 21 days
[5] = system: SK-N-MC neuroepithelioma cell line; assay: MTT anti-proliferative assay in SK-N-MC cells; format: cell-based, human; details: Homo sapiens, 72 h at 37° C., mean±SD (3 experiments)
Protocol: The cells were maintained in minimum essential media (MEM; Invitrogen, CA, USA) which contained 10% fetal calf serum (FCS; JRH Biosciences, Kansas, USA), 1% non-essential amino acids (Gibco, Victoria, Australia), 1% penicillin/streptomycin/glutamine (Gibco, VIC, Australia) and fungizone ([…]; Squibb Pharmaceuticals, Montreal, Canada).
The ability of the compounds to inhibit cellular proliferation was assessed initially in SK-N-MC cells by the MTT assay.
Table 1. […] Cells were seed and allowed to attach to wells for 24 h and then incubated for 72 h at 37° C. with control medium or the chelators.

[6] = system: SK-N-MC neuroepithelioma cells; assay: Iron uptake assay (59Fe uptake from 59Fe-transferrin); format: cell-based, human; details: 25 μM chelator, 3 h at 37° C., 59Fe-Tf
Protocol: Cells were cultured in the same way as for the iron efflux experiments. […] At the end of the incubation the culture dishes were placed on ice, the media aspirated, and the cells washed 4 times with ice cold PBS. Protease (1 mL; 1 mg/mL; Sigma-Aldrich, NSW, Australia) solution was added to each plate and allowed to incubate on ice for 30 min. This facilitated the removal of membrane bound ^59Fe-Tf. Cells were then scraped from the plastic surface using a Teflon spatula and collected in Eppendorf tubes. These were centrifuged at 10000 rpm and 4° C. for 3 min. The supernatant was then transferred into counting tubes and the cell pellet resuspended in PBS before also being transferred into another set of counting tubes. Radioactivity was measured using a Wallac Wizard 3″ Gamma Counter (PerkinElmer, MA, USA). Results are expressed as average ^59Fe content of the cellular fraction as a percentage of the control value.

Albumin ([1]; 2.5 mg/kg): 31.3 g/L
Alkaline Phosphatase (ALP) ([1]; 2.5 mg/kg): 85.7 U/L
Cholesterol ([1]; 2.5 mg/kg): 2.44 mmol/L
Haematocrit (HCT) ([1]; 2.5 mg/kg): 44%
Haemoglobin (HGB) ([1]; 2.5 mg/kg): 148 g/L
Platelets ([1]; 2.5 mg/kg): 1047 10^9/L
Serum Iron ([1]; 2.5 mg/kg): 25.5 µmol/L
Total Iron-Binding Capacity (TIBC) ([1]; 2.5 mg/kg): 56.7 µmol/L
Triglyceride ([1]; 2.5 mg/kg): 1.00 mmol/L
Unsaturated Iron-Binding Capacity (UIBC) ([1]; 2.5 mg/kg): 57.9 µmol/L
White Blood Cell (WBC) ([1]; 2.5 mg/kg): 2.68 10^9/L
Albumin ([1]; 5 mg/kg): 30.4 g/L
Alkaline Phosphatase (ALP) ([1]; 5 mg/kg): 61.7 U/L
Cholesterol ([1]; 5 mg/kg): 2.63 mmol/L
Haematocrit (HCT) ([1]; 5 mg/kg): 43%
Haemoglobin (HGB) ([1]; 5 mg/kg): 143 g/L
Platelets ([1]; 5 mg/kg): 973 10^9/L
Serum Iron ([1]; 5 mg/kg): 31.0 µmol/L
Total Iron-Binding Capacity (TIBC) ([1]; 5 mg/kg): 53.1 µmol/L
Triglyceride ([1]; 5 mg/kg): 0.57 mmol/L
Unsaturated Iron-Binding Capacity (UIBC) ([1]; 5 mg/kg): 66.9 µmol/L
White Blood Cell (WBC) ([1]; 5 mg/kg): 1.80 10^9/L
Albumin ([1]; 7.5 mg/kg): 31.3 g/L
Alkaline Phosphatase (ALP) ([1]; 7.5 mg/kg): 87.2 U/L
Cholesterol ([1]; 7.5 mg/kg): 2.78 mmol/L
Haematocrit (HCT) ([1]; 7.5 mg/kg): 45%
Haemoglobin (HGB) ([1]; 7.5 mg/kg): 151 g/L
Platelets ([1]; 7.5 mg/kg): 834 10^9/L
Serum Iron ([1]; 7.5 mg/kg): 32.8 µmol/L
Total Iron-Binding Capacity (TIBC) ([1]; 7.5 mg/kg): 56.8 µmol/L
Triglyceride ([1]; 7.5 mg/kg): 0.67 mmol/L
Unsaturated Iron-Binding Capacity (UIBC) ([1]; 7.5 mg/kg): 64.9 µmol/L
White Blood Cell (WBC) ([1]; 7.5 mg/kg): 3.08 10^9/L
Albumin ([1]; 10 mg/kg): 29.3 g/L
Alkaline Phosphatase (ALP) ([1]; 10 mg/kg): 89.5 U/L
Cholesterol ([1]; 10 mg/kg): 2.46 mmol/L
Haematocrit (HCT) ([1]; 10 mg/kg): 44%
Haemoglobin (HGB) ([1]; 10 mg/kg): 142 g/L
Platelets ([1]; 10 mg/kg): 917 10^9/L
Serum Iron ([1]; 10 mg/kg): 21.2 µmol/L
Total Iron-Binding Capacity (TIBC) ([1]; 10 mg/kg): 60.2 µmol/L
Triglyceride ([1]; 10 mg/kg): 0.94 mmol/L
Unsaturated Iron-Binding Capacity (UIBC) ([1]; 10 mg/kg): 50.1 µmol/L
White Blood Cell (WBC) ([1]; 10 mg/kg): 3.27 10^9/L
Red Blood Cell (RBC) ([1]; 2.5 mg/kg): 10.55 10^12/L
Red Blood Cell (RBC) ([1]; 5 mg/kg): 10.26 10^12/L
Red Blood Cell (RBC) ([1]; 7.5 mg/kg): 10.85 10^12/L
Red Blood Cell (RBC) ([1]; 10 mg/kg): 10.18 10^12/L
Brain weight ([1]; 2.5 mg/kg): 0.372 ± 0.006 g
Heart weight ([1]; 2.5 mg/kg): 0.078 ± 0.002 g
Kidney weight ([1]; 2.5 mg/kg): 0.194 ± 0.005 g
Liver weight ([1]; 2.5 mg/kg): 0.87 ± 0.02 g
Lung weight ([1]; 2.5 mg/kg): 0.121 ± 0.005 g
Spleen weight ([1]; 2.5 mg/kg): 0.075 ± 0.004 g
Brain weight ([1]; 5 mg/kg): 0.367 ± 0.007 g
Heart weight ([1]; 5 mg/kg): 0.078 ± 0.002 g
Kidney weight ([1]; 5 mg/kg): 0.187 ± 0.006 g
Liver weight ([1]; 5 mg/kg): 0.77 ± 0.02 g
Lung weight ([1]; 5 mg/kg): 0.117 ± 0.003 g
Spleen weight ([1]; 5 mg/kg): 0.075 ± 0.004 g
Brain weight ([1]; 7.5 mg/kg): 0.356 ± 0.007 g
Heart weight ([1]; 7.5 mg/kg): 0.092 ± 0.005 g
Kidney weight ([1]; 7.5 mg/kg): 0.193 ± 0.008 g
Liver weight ([1]; 7.5 mg/kg): 0.83 ± 0.03 g
Lung weight ([1]; 7.5 mg/kg): 0.119 ± 0.004 g
Spleen weight ([1]; 7.5 mg/kg): 0.061 ± 0.009 g
IC50 [5]: 4.1 nM
SMILES: CCN(C)C(=S)NN=C(c1ccccn1)c1ccccn1 [Dp4e4mT, di-2-pyridylketone 4-ethyl-4-methyl-3-thiosemicarbazone]
Alanine Aminotransferase (ALT) ([1]; 2.5 mg/kg): 73.1 U/L
Alanine Aminotransferase (ALT) ([1]; 5 mg/kg): 44.9 U/L
Alanine Aminotransferase (ALT) ([1]; 7.5 mg/kg): 57.2 U/L
Alanine Aminotransferase (ALT) ([1]; 10 mg/kg): 63.4 U/L
Body weight (% initial) ([1]; 2.5 mg/kg): 94.1 ± 1.3 % initial
Body weight (% initial) ([1]; 5 mg/kg): 91.6 ± 2.4 % initial
Body weight (% initial) ([1]; 7.5 mg/kg): 91.6 ± 2.2 % initial
cellular 59Fe mobilised (59Fe released as percentage of total 59Fe) [2]: 38%
net tumour size (% of the initial tumour volume) [3]: 120-122%
Tumour weight ([4]; 2.5 mg/kg): 0.63 ± 0.17 g
Tumour weight ([4]; 5 mg/kg): 0.89 ± 0.14 g
Tumour weight ([4]; 7.5 mg/kg): 0.60 ± 0.15 g
net tumour size (% of initial tumour volume) ([4]; 7.5 mg/kg): 404%
net tumour size (% of initial tumour volume) ([4]; 10 mg/kg): 284%
cellular 59Fe uptake (% of the control) [6]: 12%
